The source of these data is patent publication EP4790066A1, “GLP-1R/GIPR/GCGR TRIPLE AGONIST ANALOGUE AND USE THEREOF” (Shenzhen Bay Laboratory, priority 2023, dated 2025).

*1 amine or outer side, *2 acyl side, *3 side chain or, on linkers, in order; H or OH if unused. Where a SMILES comes first, the peptide text is derived from it. Bridges are numbered along the chain shown (N, C = ends). [ ]: non-standard residue; d: D form. X1 = O=C(O)CCCCCCCCCCCCCCCCCCC(=O)N[C@@H](CCCCNC(=O)COCCOCCNC(=O)COCCOCCNC(=O)CCC(=O)N(CCNC(=O)C[*:1])CCNC(=O)C[*:2])C(=O)O; Phe(2-F) = N[C@@H](Cc1ccccc1F)C(=O)O; tBuAla = CC(C)(C)C[C@H](N)C(=O)O; αMeL = CC(C)C[C@](C)(N)C(=O)O; αMeK = C[C@](N)(CCCCN)C(=O)O; αMeS = C[C@](N)(CO)C(=O)O; Aib = CC(C)(N)C(=O)O

What all share (type): cell-based
In one assay the target is T1, GIPR (Homo sapiens, UniProt P48546).
T1 construct: expressed in transfected cells
T1 sequence (P48546 22-466): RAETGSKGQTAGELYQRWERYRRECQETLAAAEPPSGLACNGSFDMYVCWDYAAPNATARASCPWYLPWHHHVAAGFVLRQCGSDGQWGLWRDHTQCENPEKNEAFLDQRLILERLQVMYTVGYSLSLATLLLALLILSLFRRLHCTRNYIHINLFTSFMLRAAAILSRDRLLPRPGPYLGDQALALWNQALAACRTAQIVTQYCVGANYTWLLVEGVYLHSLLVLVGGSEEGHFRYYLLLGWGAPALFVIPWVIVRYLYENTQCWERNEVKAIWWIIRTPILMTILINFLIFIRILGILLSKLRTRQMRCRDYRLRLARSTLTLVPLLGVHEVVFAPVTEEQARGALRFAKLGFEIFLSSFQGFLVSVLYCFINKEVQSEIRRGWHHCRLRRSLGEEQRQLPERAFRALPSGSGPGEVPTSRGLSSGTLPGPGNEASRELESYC
The experiment in a line: CreLuc method (CRE-luciferase reporter), HEK293/pGM-CREB-L-Luc/GIPR pool. The note with it: 6 h incubation, read-out: EC50 (pM) for each receptor GIPR. The protocol:
(§1) 1. Insulinotropic analogues can bind to the target receptor on the cell membrane, activate the cAMP response element (CRE), and initiate the expression of downstream luciferase. The expression level is positively correlated with the biological activity of the analogue being tested. After activation, luciferase substrate is added for chemiluminescence detection, and the luminescence intensity is determined to characterize the biological activity of the test compounds. Therefore, the target peptide derivatives (or polypeptide derivatives, i.e., TG1-TG94) prepared in Example 1 and Example 2 can be tested by the CreLuc method. The specific steps are as follows: The stably transfected cell lines HEK293/pGM-CREB-L-Luc/GLP-1R pool, HEK293/pGM-CREB-L-Luc/GIPR pool, and 293HEK/pGM-CREB-L-Luc/GCGR pool were constructed. […] The corresponding test cells were digested (1 min), dispersed by pipetting, and centrifuged (1000 rpm, 5 min). The culture medium was discarded, and the cells were resuspended in freestyle medium, centrifuged again, collected, and counted. The cells were then diluted to a cell density of 5 x 10^5 cells/mL and then added to the detection wells of a 384-well plate (40 µL/20,000 cells/well). Echo was used to add the corresponding analyte dilution series. The cell plate was incubated at 37°C and 5% CO2 for 6 h, then ONE-GLO (20 µL/well) was added for detection. It was kept in the dark for 3 min, then a chemiluminescent microplate reader was used for determination. The plate was read within 30 min, and the determination results were recorded. […] Table 3: EC50 values for target peptide derivatives

In a further assay the target is T2, GLP-1R (Homo sapiens, UniProt P43220).
T2 construct: expressed in transfected cells
The experiment in a line: CreLuc method (CRE-luciferase reporter), HEK293/pGM-CREB-L-Luc/GLP-1R pool. The note with it: 6 h incubation, read-out: EC50 (pM) for each receptor GLP-1R. The method, then:
as §1
(In general: In a reporter assay the amount or activity of a reporter protein is the signal.)

Another assay deals with T3, GCGR (Homo sapiens, UniProt P47871).
T3 construct: expressed in transfected cells
The experiment in a line: CreLuc method (CRE-luciferase reporter), 293HEK/pGM-CREB-L-Luc/GCGR pool. Particulars: 6 h incubation, read-out: EC50 (pM) for each receptor GCGR. The method, then: as §1

T2 sequence (P43220 24-463, species assumed): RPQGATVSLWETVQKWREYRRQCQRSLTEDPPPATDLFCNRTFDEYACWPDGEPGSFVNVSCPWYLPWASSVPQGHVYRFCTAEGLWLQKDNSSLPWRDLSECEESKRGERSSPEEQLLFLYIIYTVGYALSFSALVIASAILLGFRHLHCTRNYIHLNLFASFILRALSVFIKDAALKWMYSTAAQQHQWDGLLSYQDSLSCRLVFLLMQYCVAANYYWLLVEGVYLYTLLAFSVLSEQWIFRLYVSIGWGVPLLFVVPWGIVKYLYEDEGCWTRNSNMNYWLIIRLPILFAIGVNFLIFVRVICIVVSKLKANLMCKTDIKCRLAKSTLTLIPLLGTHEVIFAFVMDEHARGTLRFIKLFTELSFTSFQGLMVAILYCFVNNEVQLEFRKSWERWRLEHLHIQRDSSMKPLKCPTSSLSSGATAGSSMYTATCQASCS
T3 sequence (P47871 26-477, species assumed): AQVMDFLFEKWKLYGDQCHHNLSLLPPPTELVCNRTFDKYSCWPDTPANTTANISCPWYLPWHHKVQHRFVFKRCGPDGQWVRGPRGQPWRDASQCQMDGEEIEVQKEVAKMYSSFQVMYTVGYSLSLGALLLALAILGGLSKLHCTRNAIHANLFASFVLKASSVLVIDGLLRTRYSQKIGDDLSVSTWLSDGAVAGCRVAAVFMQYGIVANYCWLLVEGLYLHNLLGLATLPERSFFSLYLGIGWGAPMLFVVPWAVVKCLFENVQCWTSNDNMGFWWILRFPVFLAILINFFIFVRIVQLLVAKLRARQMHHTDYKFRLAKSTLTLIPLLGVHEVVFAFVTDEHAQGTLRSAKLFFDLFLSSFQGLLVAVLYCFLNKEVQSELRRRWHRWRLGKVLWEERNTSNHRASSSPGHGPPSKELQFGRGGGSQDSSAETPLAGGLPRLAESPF

In general, EC50 refers to the concentration at which the effect is half-maximal. For `CC[C@H](C)[C@@H]1NC(=O)[C@H](Cc2ccccc2)NC(=O)[C@@H](NC(=O)C(C)(C)NC(=O)[C@H](CCC(N)=O)NC(=O)[C@H](C)NC(=O)[C@H](CCCCNC(C)=O)NC(=O)[C@H](CCCCN)NC(=O)[C@H](CC(=O)O)NC(=O)[C@H](CC(C)C)NC(=O)[C@](C)(CC(C)C)NC(=O)[C@@H](NC(=O)[C@H](CO)NC(=O)[C@H](Cc2ccc(O)cc2)NC(=O)[C@H](CC(=O)O)NC(=O)[C@H](CO)NC(=O)[C@@H](NC(=O)[C@H](Cc2ccccc2F)NC(=O)[C@@H](NC(=O)CNC(=O)[C@H](CCC(N)=O)NC(=O)C(C)(C)NC(=O)[C@@H](N)Cc2ccc(O)cc2)[C@@H](C)O)[C@@H](C)O)[C@@H](C)CC)CCCCNC(=O)CN(C(=O)CCCNC(=O)COCCOCCNC(=O)COCCOCCNC(=O)CC[C@H](NC(=O)CCCCCCCCCCCCCCCCCCC(=O)O)C(=O)O)CC(=O)NCCCC[C@@H](C(=O)NCC(=O)NCC(=O)N2CCC[C@H]2C(=O)N[C@@H](CO)C(=O)N[C@@H](CO)C(=O)NCC(=O)N[C@@H](C)C(=O)N2CCC[C@H]2C(=O)N2CCC[C@H]2C(=O)N2CCC[C@H]2C(=O)N[C@@H](CO)C(N)=O)NC(=O)[C@H](CC(C)C)NC(=O)[C@H](CC(C)C)NC(=O)[C@H](Cc2ccc(O)cc2)NC(=O)[C@H](CCC(=O)O)NC1=O` [TG85], the values for the EC50 on GIPR, on GLP-1R and at GCGR were 61.2 pM, 254 pM and 330 pM, respectively.
Regarding `CC[C@H](C)[C@@H]1NC(=O)[C@H](Cc2ccccc2)NC(=O)[C@@H](NC(=O)C(C)(C)NC(=O)[C@H](CCC(N)=O)NC(=O)[C@H](C)NC(=O)[C@H](CCCCNC(C)=O)NC(=O)[C@H](CCCCN)NC(=O)[C@H](CC(=O)O)NC(=O)[C@H](CC(C)C)NC(=O)[C@](C)(CC(C)C)NC(=O)[C@@H](NC(=O)[C@H](CO)NC(=O)[C@H](Cc2ccc(O)cc2)NC(=O)[C@H](CC(=O)O)NC(=O)[C@H](CO)NC(=O)[C@@H](NC(=O)[C@](C)(Cc2ccccc2)NC(=O)[C@@H](NC(=O)CNC(=O)[C@H](CCC(N)=O)NC(=O)C(C)(C)NC(=O)[C@@H](N)Cc2ccc(O)cc2)[C@@H](C)O)[C@@H](C)O)[C@@H](C)CC)CSCC(=O)NCCN(C(=O)CCC(=O)NCCOCCOCC(=O)NCCOCCOCC(=O)NCCCC[C@H](NC(=O)CCCCCCCCCCCCCCCCCCC(=O)O)C(=O)O)CCNC(=O)CSC[C@@H](C(=O)NCC(=O)NCC(=O)N2CCC[C@H]2C(=O)N[C@@H](CO)C(=O)N[C@@H](CO)C(=O)NCC(=O)N[C@@H](C)C(=O)N2CCC[C@H]2C(=O)N2CCC[C@H]2C(=O)N2CCC[C@H]2C(=O)N[C@@H](CO)C(N)=O)NC(=O)[C@H](CC(C)C)NC(=O)[C@H](CC(C)C)NC(=O)[C@H](Cc2ccc(O)cc2)NC(=O)[C@H](CCC(=O)O)NC1=O` [TG23], the EC50 at GIPR turned out to be 75.6 pM; at GLP-1R, 92.9 pM; on GCGR, 109 pM.
Turning to `CC[C@H](C)[C@@H]1NC(=O)[C@H](Cc2ccccc2)NC(=O)[C@@H](NC(=O)[C@H](CCC(N)=O)NC(=O)[C@H](CCC(N)=O)NC(=O)[C@H](C)NC(=O)[C@H](CCCCNC(C)=O)NC(=O)[C@](C)(CCCCN)NC(=O)[C@H](CC(=O)O)NC(=O)[C@H](CC(C)C)NC(=O)[C@H](CC(C)C)NC(=O)[C@@H](NC(=O)[C@](C)(CO)NC(=O)[C@H](Cc2ccc(O)cc2)NC(=O)[C@H](CC(=O)O)NC(=O)[C@H](CO)NC(=O)[C@@H](NC(=O)[C@H](Cc2ccccc2F)NC(=O)[C@@H](NC(=O)CNC(=O)[C@H](CCC(N)=O)NC(=O)C(C)(C)NC(=O)[C@@H](N)Cc2ccc(O)cc2)[C@@H](C)O)[C@@H](C)O)[C@@H](C)CC)CSCC(=O)NCCN(C(=O)CCC(=O)NCCOCCOCC(=O)NCCOCCOCC(=O)NCCCC[C@H](NC(=O)CCCCCCCCCCCCCCCCCCC(=O)O)C(=O)O)CCNC(=O)CSC[C@@H](C(=O)NCC(=O)NCC(=O)N2CCC[C@H]2C(=O)N[C@@H](CO)C(=O)N[C@@H](CO)C(=O)NCC(=O)N[C@@H](C)C(=O)N2CCC[C@H]2C(=O)N2CCC[C@H]2C(=O)N2CCC[C@H]2C(=O)N[C@@H](CO)C(N)=O)NC(=O)[C@H](CC(C)C)NC(=O)[C@H](CC(C)C)NC(=O)[C@H](Cc2ccc(O)cc2)NC(=O)[C@H](CCC(=O)O)NC1=O` [TG56] (H-Y[Aib]QGT[Phe(2-F)]TSDY[αMeS]ILLD[αMeK]K(Ac)AQQCFIEYLLCGGPSSGAPPPS-NH2; linker 21-28 via X1), the values for the EC50 at GIPR, at GLP-1R and on GCGR were 39.5 pM, 197 pM and 681 pM, respectively.
In the case of `CC[C@H](C)[C@@H]1NC(=O)[C@H](Cc2ccccc2)NC(=O)[C@@H](NC(=O)C(C)(C)NC(=O)[C@H](CCC(N)=O)NC(=O)[C@H](C)NC(=O)[C@H](CCCCNC(C)=O)NC(=O)[C@H](CCCCN)NC(=O)[C@H](CC(=O)O)NC(=O)[C@H](CC(C)C)NC(=O)[C@](C)(CC(C)C)NC(=O)[C@@H](NC(=O)[C@H](CO)NC(=O)[C@H](Cc2ccc(O)cc2)NC(=O)[C@H](CC(=O)O)NC(=O)[C@H](CO)NC(=O)[C@@H](NC(=O)[C@H](Cc2ccccc2)NC(=O)[C@@H](NC(=O)CNC(=O)[C@H](Cc2c[nH]cn2)NC(=O)C(C)(C)NC(=O)[C@@H](N)Cc2ccc(O)cc2)[C@@H](C)O)[C@@H](C)O)[C@@H](C)CC)CSCC(=O)NCCN(C(=O)CCC(=O)NCCOCCOCC(=O)NCCOCCOCC(=O)NCCCC[C@H](NC(=O)CCCCCCCCCCCCCCCCCCC(=O)O)C(=O)O)CCNC(=O)CSC[C@@H](C(=O)NCC(=O)NCC(=O)N2CCC[C@H]2C(=O)N[C@@H](CO)C(=O)N[C@@H](CO)C(=O)NCC(=O)N[C@@H](C)C(=O)N2CCC[C@H]2C(=O)N2CCC[C@H]2C(=O)N2CCC[C@H]2C(=O)N[C@@H](CO)C(N)=O)NC(=O)[C@H](CC(C)C)NC(=O)[C@H](CC(C)C)NC(=O)[C@H](Cc2ccc(O)cc2)NC(=O)[C@H](CCC(=O)O)NC1=O` [TG42], the EC50 was 21.3 pM on GIPR, 477 pM at GLP-1R and 99.4 pM at GCGR.
Regarding `CC[C@H](C)[C@@H]1NC(=O)[C@H](Cc2ccccc2)NC(=O)[C@@H](NC(=O)C(C)(C)NC(=O)[C@H](CCC(N)=O)NC(=O)[C@H](C)NC(=O)[C@H](CCCCNC(C)=O)NC(=O)[C@H](CCCCN)NC(=O)[C@H](CC(=O)O)NC(=O)[C@H](CC(C)(C)C)NC(=O)[C@](C)(CC(C)C)NC(=O)[C@@H](NC(=O)[C@H](CO)NC(=O)[C@H](Cc2ccc(O)cc2)NC(=O)[C@H](CC(=O)O)NC(=O)[C@H](CO)NC(=O)[C@@H](NC(=O)[C@H](Cc2ccccc2)NC(=O)[C@@H](NC(=O)CNC(=O)[C@H](CCC(N)=O)NC(=O)C(C)(C)NC(=O)[C@@H](N)Cc2ccc(O)cc2)[C@@H](C)O)[C@@H](C)O)[C@@H](C)CC)CSCC(=O)NCCN(C(=O)CCC(=O)NCCOCCOCC(=O)NCCOCCOCC(=O)NCCCC[C@H](NC(=O)CCCCCCCCCCCCCCCCCCC(=O)O)C(=O)O)CCNC(=O)CSC[C@@H](C(=O)NCC(=O)NCC(=O)N2CCC[C@H]2C(=O)N[C@@H](CO)C(=O)N[C@@H](CO)C(=O)NCC(=O)N[C@@H](C)C(=O)N2CCC[C@H]2C(=O)N2CCC[C@H]2C(=O)N2CCC[C@H]2C(=O)N[C@@H](CO)C(N)=O)NC(=O)[C@H](CC(C)C)NC(=O)[C@H](CC(C)C)NC(=O)[C@H](Cc2ccc(O)cc2)NC(=O)[C@H](CCC(=O)O)NC1=O` [TG26] (H-Y[Aib]QGTFTSDYSI[αMeL][tBuAla]DKK(Ac)AQ[Aib]CFIEYLLCGGPSSGAPPPS-NH2; linker 21-28 via X1), the results for the EC50 at GIPR, on GLP-1R and on GCGR were 59.4 pM, 149 pM and 360 pM, respectively.
